Laboratory results taken from ChEMBL document CHEMBL1133077, “Pyrrolo[3,2-c]pyridine derivatives as inhibitors of platelet aggregation” (Bioorg Med Chem Lett, 2000).

Columns and labels:
Homo sapiens = species on record: Homo sapiens; assay: Compound was evaluated for inhibition of ADP-mediated platelet aggregation; type: functional; parameters: concentration or dose not given beside the values
[1] = 1-Octanol/water distribution coefficient measured at 7.4; type: physicochemical; settings: pH 7.4

SMILES | Inhibition (Homo sapiens) [%] | logD [1]
CC1CNC(C)c2cc[nH]c21 (stereo not given) | 26 | -1.08
CC1CN(C)C(C)c2cc([N+](=O)[O-])[nH]c21 (stereo not given) | 3.6 | 1.14
CC1CN(C)C(C)c2cc[nH]c21 (stereo not given) | 28.5 | -0.41
CC1CN(C)C(C)c2cc(C=O)[nH]c21 (stereo not given) | 48 | 0.69
C=Cn1ccc2c1CCN(Cc1ccccc1)C2 | 38.7 | 
CCN1CCc2[nH]ccc2C1 | 23.7 | 
CC1CN(C)C(C)c2cc(CO)[nH]c21 (stereo not given) | 3.3 | 
CC1CN(C)C(C)c2cc(/C=N/CCO)[nH]c21 (stereo not given) | 12.2 | 
c1ccc(CN2CCc3[nH]ccc3C2)cc1 | 46.5 | 1.59
Clc1ccccc1CN1CCc2sccc2C1 [TICLOPIDINE] | 48.5 | 
